Data reported in US20250345318A1, “COMPOUND AND USE THEREOF IN PREVENTING OR TREATING RADIATION DAMAGE” (SIMCERE PHARMACEUTICAL CO., LTD., priority 2022, published 2025).

Experiments:
[1] = system: SPCA-1 cells; assay: Subcutaneous SPCA-1 lung cancer xenograft model with X-ray radiation therapy (Example 20); format: in vivo; conditions: for tumor inhibition rate: day 13, vs control group
Description: SPCA-1 cells in the logarithmic growth phase were subcutaneously injected into male BALB/C nude mice aged 4-5 weeks at 5×10^6 cells/100 μL […]. When the tumor volume reached 60-100 mm^3 (tumor volume=length×width^2/2), the mice were randomized into a vehicle control group, a 100 mg/kg JAC4 group (daily treatment), a 3 Gy×5 X-ray radiation group (5 consecutive days of radiation), and a 100 mg/kg JAC4+3 Gy×5 X-ray radiation group, each containing 6 mice. The formulation of the vehicle for JAC4 was polyethylene glycol:ethanol:physiological saline=40:7.5:52.5, v/v/v. The vehicle group and the treatment groups were given the vehicle or the treatment at the same volume by the same route, respectively. The mice were kept anesthetized by isoflurane through a mask in a supine posture. The irradiation range was adjusted to the tumor and the whole lung with a width of about 2 cm through the width indicating lamp and the beam limiting device of the system. The chamber was closed, and the irradiation time was set to about 126 s according to the dose rate to enable the total dose to reach 3 Gy. The irradiator was turned on for the irradiation. 100 mg/kg JAC4 was administered intragastrically daily. The body weight and tumor volume were measured daily and the modeling was terminated on day 13 post-dose.
After the modeling was finished, the tumor tissue was subjected to HE staining according to the following specific procedures: 3 mice were randomly selected to provide the tumor tissue for HE staining in each group, and 6 fields of view were randomly selected for inspection.

[2] = system: lung tissue; assay: JWA, γ-H2AX, p-p65 in lung tissue of xenograft mice (immunofluorescence, immunoblot) (Example 21); format: in vivo
From the text: In order to verify the protection effect of JAC4 against X-ray-induced DNA damage in lung tissues, 3 mice were randomly selected from each group to provide the lung tissue for immunofluorescence staining, and proteins were extracted from the lung tissues of the other 3 mice for western immunoblot to detect the expression levels of JWA, γ-H2AX, and p-p65, thereby verifying the relation between the targets of JAC4 and the reduction of DNA damage and apoptotic damages in the lung tissues. The western blot procedures are detailed in Example 4, and the immunofluorescence staining procedures are as follows:
1. Dewaxing and hydration: Prepared paraffin sections were dewaxed in an oven at 60° C. for 2-3 h to ensure a tight attachment between the section and the slide; the sections were then dewaxed by soaking in xylene I, 30 min→xylene II, 30 min→xylene III, 30 min→absolute ethyl alcohol I, shaker, 5 min→absolute ethyl alcohol II, shaker, 5 min→95% ethyl alcohol, shaker, 5 min→85% ethyl alcohol, shaker, 5 min→75% ethyl alcohol, shaker, 5 min→PBS, shaker, 5 min×3.
2. Antigen retrieval: The washed sections were boiled in 500 mL of 1× antigen retrieval solution (20× sodium citrate buffer 25 mL, pH 6.0, diluted to 1× in 475 mL of PBS), then taken out 10 min after the solution started boiling, and cooled to room temperature.
3. Cleaning and blocking: The sections were washed with PBS for 5 min thrice on a shaker. Droplets on the sections were removed carefully without overdrying. The edges of the sections were marked with an immunofluorescent pen, and a blocking buffer (centrifuged at 12,000 g for 5 min) was dropwise added to completely cover the sections. The sections were blocked for 1 h at room temperature.
4. Cleaning and co-incubation with primary antibody: After removing the blocking buffer, the sections were washed with PBS for 5 min thrice on a shaker; the primary antibody (centrifuged at 6,000 g for 5 min) was added dropwise to cover the sections, and the sections were incubated into a humidified chamber overnight at 4° C.
5. Cleaning and co-incubation with secondary antibody: The sections were washed with PBS for 5 min thrice on a shaker before the fluorescent secondary antibody (centrifuged at 6,000 g for 5 min) was added dropwise away from light. The sections were incubated at room temperature for 1 h.
6. Cleaning, nucleus staining, and photographing: The whole procedure was performed away from light. The sections were washed with PBS for 5 min thrice on a shaker. An anti-fluorescence quenching blocker containing DAPI was added dropwise. The cover glass was mounted for sealing and slowly from one side to avoid bubbles. The sealed slices were incubated in a humidified chamber for 15 min and continuously photographed to give images under a laser confocal microscope.

[3] = system: SPCA-1 cells; assay: Plate colony formation, SPCA-1 (Example 22); format: cell-based, human
Description: The cell proliferation capacity was determined by a plate colony formation experiment, with the following specific procedures.
1. SPCA-1 and BEAS-2B cells (or SPCA-1 and BEAS-2B cells transfected with JWA-knockdown plasmids) in the exponential growth phase were plated in 6-well plates at a specific amount. The number of plated cells is as follows
2. After the cells adhered to the container wall, the cells were treated (or not treated) with […] JAC4 and treated with X-ray of 0, 2, 4, or 6 Gy. The medium was replaced with a fresh medium containing JAC4 at the corresponding concentration once every 2 days (or the cells were treated with X-ray of 0, 2, 4, or 6 Gy after adhesion, and the medium was replaced with a fresh medium once every 2 days).
3. After the cells were cultured for 10-14 days, colonies were visually observed. The culture medium was discarded, and the cells were fixed with methanol for 10-20 min, stained with crystal violet for 10 min, slowly washed with flowing clear water thrice, photographed, and counted for colonies containing>50 cells.
4. The colony forming efficiency (CFE)=(number of colonies formed/number of seeded cells) 100% was calculated, and the cell survival fraction (SF)=(colony forming efficiency of treatment group/colony forming efficiency of 0 Gy group)×100% was calculated from the colony forming efficiency.

[4] = system: BEAS-2B cells; assay: Apoptosis (Hoechst 33342) and mitochondrial membrane potential (JC-1), BEAS-2B (Example 22); format: cell-based, human
Description: Severe DSBs may cause apoptosis. SPCA-1 and BEAS-2B cells were plated and cultured for 24 h before they were treated with 10 μM JAC4 for 24 h and 4 Gy X-ray for 24 h. The cells were stained with Hoechst 33342 (see Hoechst staining for apoptosis detection in Example 13) to evaluate the effect of JAC4 in combination with radiation on apoptosis. […] The decrease in mitochondrial membrane potential (JC-1) is a marker event in the early stage of apoptosis. The mitochondrial membrane potential was measured using fluorescent probe JC-1. The red fluorescence indicates a high mitochondrial membrane potential leading to JC-1 aggregate formation, and the green fluorescence indicates the mitochondrial membrane potential depolarization. The fluorescence ratio of red to green reflects the mitochondrial membrane potential and the number of early apoptotic cells.

[5] = JAC4+X-ray group relative to X-ray group
[6] = JAC4 group relative to control group

SMILES: c1ccc(CSc2nnc(C3COc4ccccc4O3)o2)nc1 (stereo not shown) [JAC4]
- tumor inhibition rate ([1]; 100 mg/kg JAC4 + 3 Gy×5 X-ray combination therapy): 78.05%
- tumor inhibition rate ([1]; 100 mg/kg JAC4 intragastric daily, monotherapy): 25.45%
- tumor volume ([1]; 100 mg/kg JAC4 monotherapy): significantly smaller than the control group
- tumor-to-body weight ratio ([1]; JAC4 + X-ray combination vs X-ray monotherapy group): significantly reduced
- H&E staining of tumor tissues ([1]; JAC4 in combination with X-ray): promotes the necrosis of tumor tissues
- death ([1]; all groups, JAC4 100 mg/kg with or without X-ray): no death occurred
- body weight ([1]; among all groups, JAC4 100 mg/kg with or without X-ray): no significant changes
- JWA protein level in lung tissue (immunoblot) [2, 5]: 1.25 folds
- p-p65 protein level in lung tissue (immunoblot) [2, 5]: 0.61 folds
- γ-H2AX protein level in lung tissue (immunoblot) [2, 5]: 0.83 folds
- fluorescence intensities of γ-H2AX, TNF-α, and TGF-β1 in lung tissue ([2]; JAC4+X-ray group vs X-ray group, immunofluorescence): significantly decreased
- JWA fluorescence intensity in lung tissue ([2]; JAC4 and JAC4+X-ray groups vs control group, immunofluorescence): higher JWA fluorescence intensity as compared with the control group
- JWA protein level in lung tissue (immunoblot) [2, 6]: 4.23 folds
- p-p65 protein level in lung tissue (immunoblot) [2, 6]: 0.63 folds
- γ-H2AX protein level in lung tissue (immunoblot) [2, 6]: 0.91 folds
- cell survival (radiosensitization curve) ([3]; SPCA-1, 10 μM JAC4 + X-ray vs X-ray monotherapy): significantly reduced
- number of colonies formed ([3]; SPCA-1, JAC4 in combination with X-ray): decreased
- apoptosis (Hoechst 33342) ([4]; 10 μM JAC4 24 h + 4 Gy X-ray 24 h): decreased the pro-apoptotic effect of X-ray
- mitochondrial membrane potential (JC-1) ([4]; JAC4 in combination with X-ray): reversed the X-ray-induced decrease in mitochondrial membrane potential
